Measured values reported in patent publication US6015577A, “Pharmaceutical compositions containing dipyridamole or mopidamol and acetylsalicylic acid or the physiologically acceptable salts thereof, processes for preparing them and their use in treating clot formation” (Thomae GmbH; Dr. Karl, priority 1986, dated 2000).

Test system: clot formation in vessels of the mesenterium
Assay: electrically induced clot formation in mesenteric vein, clot size monitored by intravital microscope
Format: in vivo, rat
Conditions: 2.5 mg/kg acetylsalicylic acid or 5 mg/kg dipyridamole p.o. alone; FIGS. 5 and 6
Description: The antithrombotic activity achieved with a simultaneous oral administration, according to the invention, of 5 mg/kg of dipyridamole and 0.05 mg/kg of acetylsalicylic acid (weight ratio of dipyridamole to acetylsalicylic acid=100) and, by comparison, during sequential oral administration (according to European Application No. 85 108 761.9) of 5 mg/kg of dipyridamole and 5 mg/kg of acetylsalicylic acid to rats (FW 49) with a body weight of from 60 to 80 g before the start of the experiment was investigated by applying a clotting stimulus to vessels of the mesenterium and by monitoring the size of the clots over a period of time. Groups of 5 animals were used. […] An interval of 1 hour was left between the simultaneous oral administration of the substances according to the invention and the application of the clot or the actual carrying out of the measurements. […]
Using an intravital microscope to monitor the process, a platinum electrode was placed on an outer blood vessel wall of the mesenterium. […] The size of the clot is measured at 10 second intervals and later at 30 second intervals over a period of up to 20 minutes after the stimulation of the blood vessel and is given as the size of the clot (at right angles to the blood vessel wall) as a percentage of the internal diameter of the blood vessel.

| SMILES | reduction in the clot size, single substance |
| --- | --- |
| CC(=O)Oc1ccccc1C(=O)O [Acetylsalicylic acid, acetylsalicylic acid] | do not bring about any significant reduction in the clot size |
| OCCN(CCO)c1nc(N2CCCCC2)c2nc(N(CCO)CCO)nc(N3CCCCC3)c2n1 [Dipyridamole, 2,6-bis-(diethanolamino)-4,8-dipiperidino-(5,4-d)-pyrimidine] | do not bring about any significant reduction in the clot size |
